The text below walks through data of US20070066608A1, “Novel indole derivatives with an improved antipsychotic activity” (priority 2003, published 2007).

Each structure is given as a SMILES string. Some results are limits rather than exact numbers.

For experiment [1], the target named is T1, Human Dopamine D2L receptor (Homo sapiens, UniProt P14416).
T1 construct: expressed in transfected cells; host or cells: CHO cells
The experiment in a line: Radioligand binding experiment for dopamine D2 receptor (hD2), [3H]Spiperone. To be noted: membranes of D2L receptor-transfected CHO cells, read-out: pIC50 D2 (converted). As for the experimental part:
(§1) The interaction of the compounds of Formula (I) with dopamine-receptors, h5HT-transporter and h5HT1A receptor was assessed in in vitro radioligand binding experiments. In general, a low concentration of a radioligand with a high binding affinity for a particular receptor or transporter is incubated with a sample of a tissue preparation enriched in a particular receptor or transporter or with a preparation of cells expressing cloned human receptors in a buffered medium. During the incubation, the radioligand binds to the receptor or transporter. When equilibrium of binding is reached, the receptor bound radioactivity is separated from the non-bound radioactivity, and the receptor- or transporter-bound activity is counted The interaction of the test compounds with the receptor is assessed in competition binding experiments. Various concentrations of the test compound are added to the incubation mixture containing the receptor- or transporter preparation and the radioligand. The test compound in proportion to its binding affinity and its concentration inhibits binding of the radioligand.
Human Dopamine D2L receptor-transfected CHO cells were collected by scraping into ice-cold Tris-HCl buffer ([…], pH 7.4). The suspension was centrifuged (23 500×g, 10 min, 4° C.) and pellets stored at −70° C. until require. They were then thawed and briefly homogenised using an Ultra-Turrax T25 homogeniser prior to dilution to an appropriate protein concentration optimised for specific and non-specific binding. [^3H]Spiperone (NEN, specific activity˜70 Ci/mmol) was diluted in Tris-HCl assay buffer containing NaCl, CaCl2, MgCl2, KCI (50, 120, 2, 1, and 5 mM respectively, adjusted to pH 7.7 with HCl) at a concentration of 2 nmol/L. Prepared radioligand (50 μl) was then incubated (30 min, 37° C.) with membrane preparations pre-diluted to an appropriate protein concentration (400 μl), and with 50 μl of either the 10% DMSO control, Butaclamol (10^−6 mol/L final concentration), or compound of interest. Membrane-bound activity was detected by filtration through a Packard Filtermate harvester onto Unifilterplates, washing with ice-old Tris-HCl buffer (50 mM; pH8.0; 3×4 ml). Filters were allowed to dry before adding scintillation fluid and counting in a Topcount scintillation counter. % Specific bound and competition binding curves were calculated using S-Plus software (Insightful).

The target of experiment [2] is T2, Human Dopamine D3 receptor (Homo sapiens, UniProt P35462).
T2 construct: expressed in transfected cells; host or cells: CHO cells
T2 sequence (P35462 whole entry): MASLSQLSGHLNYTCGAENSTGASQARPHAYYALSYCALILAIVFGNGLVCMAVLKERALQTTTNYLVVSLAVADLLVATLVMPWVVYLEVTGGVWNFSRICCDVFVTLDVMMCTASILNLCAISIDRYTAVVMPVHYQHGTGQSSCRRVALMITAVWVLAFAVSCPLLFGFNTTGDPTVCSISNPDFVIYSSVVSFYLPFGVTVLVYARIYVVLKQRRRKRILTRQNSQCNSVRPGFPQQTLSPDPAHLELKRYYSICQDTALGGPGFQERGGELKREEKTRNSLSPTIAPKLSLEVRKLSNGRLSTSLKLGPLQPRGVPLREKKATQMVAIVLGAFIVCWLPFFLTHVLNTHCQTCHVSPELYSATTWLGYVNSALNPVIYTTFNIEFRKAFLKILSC
Nature of the experiment: Radioligand binding experiment for dopamine D3 receptor (hD3), [125I]Iodosulpride. To be noted: membranes of D3 receptor-transfected CHO cells, read-out: pIC50 D3 (converted). How it is done: as §1
Human Dopamine D3 receptor-transfected CHO cells were collected by scraping into ice-cold Tris-HCl buffer (50 mM, pH 7.4). The suspension was centrifuged (23 500×g, 10 min, 4° C.) and pellets stored at −70° C. until required. They were then thawed and briefly homogenised using an Ultra-Turrax T25 homogeniser prior to dilution to an appropriate protein concentration optimised for specific and non-specific binding. [^125]Iodosulpride (Amersham, specific activity 2000 Ci/mmol) was diluted in Tris-HCl assay buffer containing NaCl, CaCl2, MgCl2, KCl and BSA (50, 120, 2, 1, 5 mM, 0.1% respectively, adjusted to pH 7.7 with HCl) at a concentration of 2 nmol/L. Prepared radioligand (20 μl) was incubated (60 min, RT) and with 20 μl of either the 10% DMSO control, Risperidone (10^−6 mol/L final concentration), or compound of interest, then with membrane preparations (80 μl). Overnight incubation followed after addition of WGA-coated PVT SPA beads (250 μl; Amersham) and membrane-bound counts measured in a Wallac Microbeta. % Specific bound and competition binding curves were calculated using S-Plus software (Insightful).

A further experiment has as its target T3, human 5HT transporter (Homo sapiens, UniProt P31645).
T3 construct: host or cells: HEK cells
The experiment in a line: Binding experiment for 5-HT transporter, [3H]Paroxetine. To be noted: 5HT transporter-transfected HEK cells, [3H]Paroxetine binding; read-out: pIC50 5HT reuptake inhibition (converted). How it is done:
as §1
Frozen human 5HT transporter-transfected HEK cells (Perkin Elmer, Brussels) were thawed and briefly homogenised using an Ultra-Turrax T25 homogeniser prior to dilution to an appropriate protein concentration optimised for specific and non-specific binding. [^3H]Paroxetine (NEN, specific activity 20 Ci/mmol) was diluted in Tris-HCl assay buffer containing NaCl and KCl (50 mM 120 mM and 5 mM, respectively; pH 7.4) at a concentration of 5 nmol/L. Prepared radioligand (25 μl) was then incubated (60 min, 25° C.) with membrane preparations (200 μl) and with 25 μl of either 10% DMSO control, Imipramine (10^−6 mol/L final concentration), or compound of interest Membrane-bound activity was detected by filtration through a Packard Filtermate harvester onto Unifilterplates pre-soaked in 0.1% PEI, washing with ice-cold assay buffer (3×4 ml). Filters were dried prior to addition of scintillation fluid and then counting in a Topcount scintillation counter. % Specific bound and competition binding curves were calculated using S-Plus software (Insightful).

Another experiment addresses T4, Human 5HT1A receptor (Homo sapiens, UniProt P08908).
T4 construct: expressed in transfected cells; host or cells: L929 cells (stably transfected)
T4 sequence (P08908 1-422): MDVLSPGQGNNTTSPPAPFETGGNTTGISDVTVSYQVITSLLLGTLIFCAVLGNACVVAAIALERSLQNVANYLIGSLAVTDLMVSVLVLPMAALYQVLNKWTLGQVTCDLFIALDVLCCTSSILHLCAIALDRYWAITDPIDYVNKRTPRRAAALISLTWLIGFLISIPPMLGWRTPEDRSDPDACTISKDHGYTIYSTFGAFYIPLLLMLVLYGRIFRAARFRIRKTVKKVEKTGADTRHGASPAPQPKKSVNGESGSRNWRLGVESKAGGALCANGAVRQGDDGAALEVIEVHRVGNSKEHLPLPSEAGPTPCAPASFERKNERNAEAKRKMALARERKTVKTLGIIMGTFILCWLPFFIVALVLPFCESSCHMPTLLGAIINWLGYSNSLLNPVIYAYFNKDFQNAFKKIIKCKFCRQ
Nature of the experiment: Binding experiment for 5-HT1A receptor, [3H]8OHDPAT. To be noted: membranes of 5HT1A receptor-transfected L929 cells, read-out: pIC50 5HT1A (converted). As for the experimental part:
as §1
Human 5HT1A receptor-transfected L929 cells were collected by scraping into ice-cold Tris-HCl buffer (50 mM, pH 7.4). The suspension was centrifuged (23 500×g, 10 min, 4° C.) and pellets stored at −70° C. until required. They were then thawed and briefly homogenised using an Ultra-Turrax T25 homogeniser prior to dilution to an appropriate protein concentration optimised for specific and non-specific binding. [^3H]8OHDPAT (NEN, specific activity 127 Ci/mmol) was diluted in Tris-HCl assay buffer containing CaCl2 (50 mM and 4 mM, respectively; pH 7.7) at a concentration of 5 nmol/L. Prepared radioligand (50 μl) was then incubated (30 min, 37° C.) with membrane preparations from L929 cells stably-transfected with the h5HT1A gene construct (400 μl) and with 50 μl of either the 10% DMSO control, spiroxatrine (10^−6 mol/L final concentration), or compound of interest. Membrane-bound activity was detected by filtration through a Packard Filtermate harvester onto Unifaltemplates, washing with ice-cold Tris-HCI buffer (3×4 ml), followed by drying. Scintillation fluid was added and membranes were counted in a Topcount scintillation counter. % Specific bound and competition binding curves were calculated using S-Plus software (Insightful).

T3 sequence (P31645 whole entry): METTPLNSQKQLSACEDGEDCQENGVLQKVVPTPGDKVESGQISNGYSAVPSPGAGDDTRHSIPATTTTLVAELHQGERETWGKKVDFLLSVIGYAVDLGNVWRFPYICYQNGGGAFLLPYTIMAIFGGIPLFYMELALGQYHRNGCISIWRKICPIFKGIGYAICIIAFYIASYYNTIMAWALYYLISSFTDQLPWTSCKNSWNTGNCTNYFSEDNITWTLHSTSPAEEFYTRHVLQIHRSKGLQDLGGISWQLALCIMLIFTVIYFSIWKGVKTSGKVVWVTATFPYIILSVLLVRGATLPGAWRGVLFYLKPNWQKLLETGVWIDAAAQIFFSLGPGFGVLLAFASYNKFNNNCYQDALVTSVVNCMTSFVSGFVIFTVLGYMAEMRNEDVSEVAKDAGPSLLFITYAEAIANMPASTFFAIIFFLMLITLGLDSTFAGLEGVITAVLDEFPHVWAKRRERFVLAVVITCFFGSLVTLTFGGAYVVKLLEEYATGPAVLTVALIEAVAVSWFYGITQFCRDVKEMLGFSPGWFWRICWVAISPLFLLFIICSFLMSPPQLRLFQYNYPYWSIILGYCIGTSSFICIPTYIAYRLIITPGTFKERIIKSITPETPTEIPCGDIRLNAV
T1 sequence (P14416 whole entry): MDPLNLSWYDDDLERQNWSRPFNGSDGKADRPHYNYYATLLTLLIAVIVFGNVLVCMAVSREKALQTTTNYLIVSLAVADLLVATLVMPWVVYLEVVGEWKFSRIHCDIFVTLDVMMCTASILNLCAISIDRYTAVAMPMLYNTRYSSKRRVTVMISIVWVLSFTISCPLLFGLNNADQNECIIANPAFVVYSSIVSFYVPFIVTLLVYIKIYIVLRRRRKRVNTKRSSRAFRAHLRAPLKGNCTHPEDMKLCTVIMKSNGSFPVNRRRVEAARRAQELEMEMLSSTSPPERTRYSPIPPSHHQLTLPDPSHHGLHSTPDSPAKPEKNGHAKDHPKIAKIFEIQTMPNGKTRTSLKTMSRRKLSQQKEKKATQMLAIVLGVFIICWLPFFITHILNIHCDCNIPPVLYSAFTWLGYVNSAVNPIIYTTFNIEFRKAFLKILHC

In the case of `Fc1ccc2[nH]cc(C3=CCN(CC4COc5cccnc5O4)CC3)c2c1` (stereo not drawn) [I, reference compound], the IC50 in experiment [1] was 251 nM; in experiment [2] it was 501 nM; on human 5HT transporter, 200 nM; at Human 5HT1A receptor it was 126 nM.
As for `Fc1ccc2[nH]cc(CCCNCC3COc4ccncc4O3)c2c1` (stereo not drawn) [Compound 6], the IC50 is 200 nM in experiment [1], 31.6 nM in experiment [2], 316 nM on human 5HT transporter and 6.31 nM at Human 5HT1A receptor.
Regarding `O=[N+]([O-])c1ccc2[nH]cc(C3=CCN(CC4COc5ccncc5O4)CC3)c2c1` (single isomer, unassigned) [Compound 16], the IC50 in experiment [1] was 316 nM; on human 5HT transporter it was 251 nM.
Turning to `Fc1cccc2c(C3=CCN(CC4COc5ccncc5O4)CC3)c[nH]c12` (stereo not drawn) [Compound 17], the values for the IC50 (in experiment [1]; at human 5HT transporter) were 126 nM and 50.1 nM, respectively.
As to `O=[N+]([O-])c1ccc2[nH]cc(C3=CCN(CC4COc5ccncc5O4)CC3)c2c1` (single isomer, unassigned) [Compound 15], the results for the IC50 (in experiment [1]; on human 5HT transporter) were 200 nM and 10 nM, respectively.
Consider `Clc1ccc2[nH]cc(C3CCN(CC4COc5ccncc5O4)CC3)c2c1` (stereo not drawn) [Compound 18], for which the IC50 in experiment [1] is 31.6 nM; at human 5HT transporter, 200 nM.
As to `N#Cc1ccc2[nH]cc(C3CCN(CC4COc5ccncc5O4)CC3)c2c1` (single isomer, unassigned) [Compound 21], the IC50 in experiment [1] was 79.4 nM; on human 5HT transporter it was 20 nM; at Human 5HT1A receptor, 31.6 nM.
`Oc1ccc2[nH]cc(C3CCN(CC4COc5ccncc5O4)CC3)c2c1` (stereo not drawn) [Compound 19]: the results for the IC50 (in experiment [1]; at human 5HT transporter) were 63.1 nM and 316 nM, respectively.
On to `N#Cc1ccc2[nH]cc(C3CCN(CC4COc5ccncc5O4)CC3)c2c1` (single isomer, unassigned) [Compound 22], for which the IC50 in experiment [1] was 794 nM; on human 5HT transporter, 501 nM; at Human 5HT1A receptor it was 10 nM.
In the case of `Fc1ccc2[nH]cc(CC3CCN(CC4COc5ccncc5O4)CC3)c2c1` (stereo not drawn) [Compound 25], the results for the IC50 (in experiment [1]; on human 5HT transporter) were 794 nM and 63.1 nM, respectively.
Consider `Brc1ccc2[nH]cc(C3=CCN(CC4COc5ccncc5O4)CC3)c2c1` (stereo not drawn) [Compound 13], for which the IC50 in experiment [1] was 158 nM; at human 5HT transporter, 100 nM.
Take `Fc1ccc2c(C3CCN(CC4COc5ccncc5O4)CC3)c[nH]c2c1` (stereo not drawn) [Compound 23]: the IC50 in experiment [1] is 25.1 nM; on human 5HT transporter, 251 nM.
In the case of `Fc1ccc2[nH]cc(C3CCN(CC4COc5ccncc5O4)CC3)c2c1` (stereo not drawn) [Compound 5], the IC50 is 79.4 nM in experiment [1], 6.31 nM in experiment [2], 126 nM at human 5HT transporter and 39.8 nM at Human 5HT1A receptor.
On to `N#Cc1ccc2[nH]cc(C3CCN(CC4COc5ccncc5O4)CC3)c2c1` (racemic) [Compound 20], for which the IC50 in experiment [1] is 63.1 nM; at human 5HT transporter, 39.8 nM.
As to `Fc1cccc2c(C3CCN(CC4COc5ccncc5O4)CC3)c[nH]c12` (stereo not drawn) [Compound 24], the IC50 in experiment [1] was 25.1 nM; on human 5HT transporter it was 316 nM.
Turning to `CN1CC(CN2CC=C(c3c[nH]c4ccc(F)cc34)CC2)Oc2ncccc21` (stereo not drawn) [Compound 1], the IC50 in experiment [1] is 200 nM; in experiment [2], 79.4 nM; at human 5HT transporter, 15.8 nM; at Human 5HT1A receptor, 12.6 nM.
Take `O=[N+]([O-])c1ccc2[nH]cc(C3=CCN(CC4COc5ccncc5O4)CC3)c2c1` (racemic) [Compound 14]: the figures for the IC50 (in experiment [1]; on human 5HT transporter; on Human 5HT1A receptor) were 100 nM, 100 nM and 200 nM, respectively.
`Fc1ccc2[nH]cc(CCCNCC3Oc4cccnc4O3)c2c1` (stereo not drawn) [Compound 9]: the IC50 was > 1000 nM in experiment [1], 251 nM in experiment [2], 501 nM on human 5HT transporter and 31.6 nM at Human 5HT1A receptor.
As for `Fc1cccc2[nH]cc(C3=CCN(CC4COc5ccncc5O4)CC3)c12` (stereo not drawn) [Compound 12], the IC50 in experiment [2] was 158 nM; at human 5HT transporter, 100 nM.
As for `CN1CC(CN2CCC(c3c[nH]c4ccc(F)cc34)CC2)Oc2ncccc21` (stereo not drawn) [Compound 2], the IC50 in experiment [1] is 398 nM; in experiment [2], 100 nM; at human 5HT transporter it was 316 nM; at Human 5HT1A receptor, 15.8 nM.
For `Fc1ccc2[nH]cc(CCCNCC3COc4cccnc4O3)c2c1` (stereo not drawn) [Compound 11] the same measures were 158 nM, 398 nM, 316 nM and 1.26 nM.
With `CN1CC(CNCCCc2c[nH]c3ccc(F)cc23)Oc2ncccc21` (stereo not drawn) [Compound 3], the IC50 in experiment [1] is > 1000 nM; in experiment [2], 398 nM; at human 5HT transporter it was 200 nM; at Human 5HT1A receptor it was 3.16 nM.
